Results taken from PMC5880945, “D-Arg^0-Bradykinin-Arg-Arg, a Latent Vasoactive Bradykinin B2 Receptor Agonist Metabolically Activated by Carboxypeptidases” (Frontiers in Pharmacology, 2018).
“Also recorded” adds a separate entry of the source. Square brackets hold non-standard residues; d marks the D form. Peptide text beside a SMILES is read from it.

What was measured:
[1] = test system: human ACE-mCherry fusion protein; test: Competition of a fluorogenic ACE substrate by synthetic kinins (recombinant ACE-mCherry); assay type: biochemical; settings: 15 min, 37°C
Experimental: The source of enzyme was whole HEK 293a cells grown in 24-well plates and transfected as described with a vector coding for the human ACE-mCherry fusion protein, an active enzyme ([Charest-Morin and Marceau, 2016]). The culture medium was removed from cell wells, which were rinsed twice with PBS. The fluorogenic substrate (final concentration 20 μM), and, optionally, a competitor (BK, r-BK, or r-BK-RR in variable concentrations, or the ACE inhibitor enalaprilat 1 μM) were added in 250 μl PBS in each well; the plates were then incubated for 15 min at 37°C. At this point, the well supernatants were transferred in Eppendorf tubes, centrifuged 30 s at 12500 rpm to remove debris and 100 μl of this fluid transferred in wells of 96-well plate (black background) to read the fluorescence (excitation 320 nm, emission 420 nm) using a TECAN Infinite® 200 PRO microplate reader. Results were expressed as the percent of the fluorescence in wells containing ACE-mCherry and the substrate without competitors. Controls included mock-transfected cells and enalaprilat-treated cells.

[2] = test system: GFP-tagged rabbit B2R (B2R-GFP); test: B2R-GFP endocytosis and recycling, epifluorescence microscopy, HEK 293 cells; assay type: cell-based; settings: 30 min vs 3 h of stimulation

| Structure (SMILES) | competition for recombinant ACE, relative affinity, in words ([1]; Abz-Phe-Arg-Lys(Dnp)-Pro-OH 20 μM, HEK 293a cells with ACE-mCherry, PBS, fluorescence ex 320 / em 420 nm) | persistence of B2R-GFP endocytosis, in words [2] | inhibition of ACE substrate hydrolysis, in words ([1]; competitor 20 μM (equal to substrate concentration), fluorescence) |
| --- | --- | --- | --- |
| N=C(N)NCCC[C@@H](N)C(=O)N[C@@H](CCCNC(=N)N)C(=O)N1CCC[C@H]1C(=O)N1CCC[C@H]1C(=O)NCC(=O)N[C@@H](Cc1ccccc1)C(=O)N[C@@H](CO)C(=O)N1CCC[C@H]1C(=O)N[C@@H](Cc1ccccc1)C(=O)N[C@@H](CCCNC(=N)N)C(=O)N[C@@H](CCCNC(=N)N)C(=O)N[C@@H](CCCNC(=N)N)C(=O)O [r-BK-RR, D-Arg^0-BK-Arg-Arg] (H-[dR]RPPGFSPFRRR-OH) | only slightly less potent than the two other peptides | – | – |
| N=C(N)NCCC[C@@H](N)C(=O)N[C@@H](CCCNC(=N)N)C(=O)N1CCC[C@H]1C(=O)N1CCC[C@H]1C(=O)NCC(=O)N[C@@H](Cc1ccccc1)C(=O)N[C@@H](CO)C(=O)N1CCC[C@H]1C(=O)N[C@@H](Cc1ccccc1)C(=O)N[C@@H](CCCNC(=N)N)C(=O)O [r-BK, D-Arg^0-BK] (H-[dR]RPPGFSPFR-OH) | – | reversible as a function of incubation time, as that of BK; also recorded: not more persistent | nearly complete inhibition |
